The record followed here is BindingDB's records for patent US12404261 (Novartis, 2025).

The experiment deals with Cyclic GMP-AMP synthase (Homo sapiens, UniProt Q8N884). In words: Biochemical Assay. Here is the method: The enzyme solution was transferred into the reagent buffer to give a final concentration of 30 nM. […] The reaction plates were then centrifuged at 1000 rpm for 1 minute and incubated at room temperature for 1 h.
Sequence of Cyclic GMP-AMP synthase (Q8N884 whole entry): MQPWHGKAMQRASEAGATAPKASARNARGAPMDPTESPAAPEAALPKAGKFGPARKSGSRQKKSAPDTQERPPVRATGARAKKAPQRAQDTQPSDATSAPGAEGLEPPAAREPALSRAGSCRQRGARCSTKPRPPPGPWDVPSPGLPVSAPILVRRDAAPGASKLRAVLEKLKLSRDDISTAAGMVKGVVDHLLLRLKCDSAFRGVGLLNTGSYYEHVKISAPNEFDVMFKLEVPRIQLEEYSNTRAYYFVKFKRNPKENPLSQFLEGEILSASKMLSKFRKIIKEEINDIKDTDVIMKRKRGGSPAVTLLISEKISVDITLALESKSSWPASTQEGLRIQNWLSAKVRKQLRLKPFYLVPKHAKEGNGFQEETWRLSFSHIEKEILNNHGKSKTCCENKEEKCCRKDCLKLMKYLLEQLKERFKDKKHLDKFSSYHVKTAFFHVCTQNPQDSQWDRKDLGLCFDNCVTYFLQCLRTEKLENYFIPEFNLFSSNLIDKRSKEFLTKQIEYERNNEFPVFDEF
Compound `COc1cc2c(-c3cn[nH]c3)c(-c3nnc(C(CN(C)C)OC)[nH]3)n(C)c2c(F)c1Cl` (configuration not stated) [US12404261, Example 75] had an IC50 of 70 nM.
For `COc1cc2c(-n3ccnc3)c(-c3nnc(C(CN(C)C)OC)[nH]3)n(C)c2c(F)c1Cl` (configuration not stated) [US12404261, Example 97], the IC50 worked out at 104 nM.
Compound `FC(F)(F)c1nnc(-c2[nH]c3cc(Cl)c(OC4CC4)cc3c2-n2ccnc2)[nH]1` [US12404261, Example 113] had an IC50 of 861 nM.
Regarding `Cn1c(-c2nnc(C(F)(F)F)[nH]2)c(-n2ccnc2)c2cc(O)c(Cl)cc21` [US12404261, Example 115], the IC50 was found to be 67 nM.
For `COCC(C1=NNC(c2c(-n3ccnc3)c3cc(OC)c(Cl)c(F)c3n2C)N1)N1CCOCC1` (configuration not stated) [US12404261, Example 126], the 50% inhibitory concentration (IC50) was 411 nM.
Regarding `COc1cc2c(-n3ccnc3)c(-c3nnc(C(=O)N(C)C)[nH]3)n(C)c2c(C#N)c1C#N` [US12404261, Example 120], the IC50 was 172 nM.
In the case of `Cn1c(-c2nnc(C(F)(F)F)[nH]2)c(-c2cn[nH]c2)c2ccc(Cl)c(C#N)c21` [US12404261, Example 27], the IC50 amounted to 137 nM.
